# In US5686424A, “2-oxoethyl derivatives as immunosuppressants” (Miles Inc., priority 1995, dated 1997):
# Counter-ions that a name gives are not always drawn.
# Tests used:
# FKBP = FKBP (Homo sapiens, UniProt P62942); assay: PPIase Inhibition Assay; format: biochemical; conditions: concentration of inhibitor required for 50% inhibition of enzyme activity; FKBP, substrate Succinyl-Ala-Phe-Pro-Phe-para-nitroanilide; TABLE I
# How it was run: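 Chymotrypsin-coupled isomerization of Succinyl-Ala-Phe-Pro-Phe-para-nitroanilide by FKBP in ice-cold 25 mM HEPES pH 7.8, 100 mM NaCl, compound in DMSO. A390 followed 90 sec; first-order rate constants give % activity remaining after subtracting uncatalyzed rate; IC50 by linear regression of V-/V+ versus concentration.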
# human T-cells = assay: Suppression of Human T-Cell Proliferation Assay (PHA-stimulated, [3H]-thymidine incorporation); format: cell-based; conditions: concentration inhibiting [3H]-thymidine incorporation of PHA-stimulated T-cells by 50%, 72 hours; TABLE 2; read-out: IC50
# How it was run: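 SRBC-rosette-purified human peripheral T-cells stimulated with PHA-M (40 μg/ml stock) and compound dilutions, in duplicate, for 72 h at 37° C. Proliferation measured by [3H]-thymidine incorporation during the final 6 h, read by liquid scintillation counting.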
# NF-AT = NF-AT Inhibition Assay Directed β-Galactosidase Expression in FGL-5 cells; format: cell-based; conditions: 50% inhibition of NF-AT directed β-galactosidase activity in FGL-5 cells stimulated with phorbol dibutyrate and ionomycin; TABLE 3
# Procedure: 3) NF-AT Assay Stimulation of T-cells leads to the appearance of several transcription factors, including one designated "NF-AT". These factors are involved in regulation of gene expression required for immunologic activation. Some of these transcription factors appear to have functions in a wide variety of cell types. By contrast, NF-AT is found primarily in T-cells and its role is restricted to early gene activation. […] Inhibition of NF-AT activity is measured using FGL-5 cells. FGL-5 is a cloned line of stably transfected Jurkat T-cells that contain two construct in which three tandem copies of the NF-AT DNA binding site direct transcription of both murine CD8 and the lacZ gene, encoding β-galactosidase ([…] et al., 1990, Genes & Development 4:1823). When these cells are stimulated with phorbol esters which activate protein kinase C and calcium ionophore to raise the intracellular calcium concentration, transcriptionally active NF-AT is produced. In T-cells, this normally leads to the expression of IL-2, T-cell growth factor. However, in FGL-5 cells NF-AT activation leads to the production of β-galactosidase which can be detected using an appropriate substrate. […] NF-AT Inhibition Assay Directed β-Galactosidase Expression This assay was performed essentially as described (Bierer et al., 1990, Proc. Natl. Acad. Sci. 87:9231). […] The assays were done with exponentially growing cells whose density was not greater than 0.5 million cells/ml. The cells were resuspended to 3 million cells/ml in medium and 0.1 ml was added to wells of a 96-well plate. The compounds of the present invention were dissolved in either ethanol or dimethylsulfoxide at 10 mM and […] of various dilutions in medium were added to cells in duplicate wells. Treatment controls consisted of duplicate wells containing 0.5 ml/well of either medium, ethanol or dimethylsulfoxide. The ethanol and dimethyl sulfoxide were at the same concentration as was used for the compounds. […] Phorbol dibutyrate (Sigma) and Ionomycin (Calbiochem) were dissolved at 50 μg/ml and 2 mM, respectively and stored at -70° C. […] For unstimulated cell controls, 0.5 ml/well of medium was added to duplicate wells. The plates were incubated overnight (16-18 hours) at 37° C. in a humidified atmosphere of 5% CO2 and air. β-galactosidase activity was measured as the fluorescence generated by the cleavage of 4-methyl umbelliferyl-β-D-galactoside (Sigma) at the β-galactoside bond. After overnight incubation, the cells were centrifuged at 500×g for 3 minutes in the 96-well plates and washed 3 times with PBS. […] The percent inhibition by each concentration of the compounds was calculated as: […]
# Chain of FKBP (P62942 whole entry): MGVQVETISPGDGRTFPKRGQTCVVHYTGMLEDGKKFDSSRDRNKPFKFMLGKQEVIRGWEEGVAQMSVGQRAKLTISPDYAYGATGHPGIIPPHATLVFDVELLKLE
IC50 (FKBP),IC50 (NF-AT),Structure (SMILES),IC50 (human T-cells)
< 5 µM,> 100 µM,"NC(=O)C[C@H](NC(=O)[C@@H]1CCCN1CC(=O)C12CC3CC(CC(C3)C1)C2)C(=O)NCc1ccccc1 [Example 61, L-Asparagine, N-[1-(2-Adamantan-1-yl-2-Oxoethyl)-L-Prolyl] Benzylamide]",17 µM
> 5 µM,> 15 µM,"C=CCOC(=O)Nc1ccc(CCCOC(=O)[C@@H]2CCCN2CC(=O)C23CC4CC(CC(C4)C2)C3)cc1 [Example 160, L-Proline, 1-[2-Adamantan-1-yl-2-Oxoethyl] 3-(4-(N-Carboallyloxy)aminophenyl)propyl Ester Hydrochloride]",> 15 µM
< 5 µM,26 µM,"CC[C@H](C)[C@H](NC(=O)[C@@H]1CCCN1CC(=O)NCC12CC3CC(CC(C3)C1)C2)C(=O)NCc1ccccc1 [Example 91, L-Isoleucine, N-[1-(Adamant-1-ylmethylcarbamoylmethyl)-L-Prolyl] Benzylamide]",4 µM
< 5 µM,> 15 µM,"CCOc1cc(C(=O)CN2CCC[C@H]2C(=O)N[C@H](C(=O)NCc2ccccc2)[C@@H](C)CC)cc(OCC)c1OCC [Example 106, L-Isoleucine, N-[1-(2-(3,4,5-Triethoxyphenyl)-2-Oxoethyl)-L-Prolyl] Benzylamide]",> 15 µM
> 5 µM,> 15 µM,"COc1cc(C(=O)CN2CCCC[C@H]2C(=O)N[C@@H](CCc2ccccc2)CC(C)C)cc(OC)c1OC [Example 152, L-Homoproline, 1-[2-(3,4,5-Trimethoxyphenyl)-2-Oxoethyl] (1-(S)-[2'-(S)-methylpropyl]-3-phenylpropyl)-amide]",8 µM
> 5 µM,> 33 µM,"COc1cc(C(=O)CN2CCC[C@H]2C(=O)N2CCC(c3ccccc3)CC2)cc(OC)c1OC [Example 131, L-Proline, 1-[2-(3,4,5-Trimethoxyphenyl)-2-Oxoethyl] 4-Phenylpiperldenylamide]",22 µM
> 5 µM,> 15 µM,"C=CCOC(=O)Nc1ccc(CCNC(=O)[C@@H]2CCCN2CC(=O)c2cc(OC)c(OC)c(OC)c2)cc1 [Example 156, L-Proline, 1-[2-(3,4,5-Trimethoxyphenyl)-2-Oxoethyl] 2-(4-(N-carboalloxy)aminophenyl)ethylamide]",6 µM
5 µM,> 15 µM,"CC[C@H](C)[C@H](NC(=O)[C@@H]1CCCN1CC(=O)c1ccc(OC(=O)c2ccccc2)cc1)C(=O)NCc1ccccc1 [Example 102, L-Isoleucine, N-[1-(2-(4-Benzoyloxyphenyl)-2-Oxoethyl)-L-Prolyl] Benzylamide]",> 15 µM
> 5 µM,> 15 µM,"COc1cc(C(=O)CN2CCC[C@H]2C(=O)NCCc2ccc(NC(=O)OCc3ccccc3)cc2)cc(OC)c1OC [Example 157, L-Proline, 1-[2-(3,4,5-Trimethoxyphenyl)-2-Oxoethyl] 2-(4-(N-Carbobenzyloxy)aminophenyl)ethylamide]",5 µM
> 5 µM,6 µM,"CC[C@H](C)[C@H](NC(=O)[C@@H]1CCCN1CC(=O)OCC1(c2ccccc2)CCCCC1)C(=O)NCc1ccccc1 [Example 87, L-Isoleucine, N-[1-(2-(1-Phenyl-1-Cyclohexylmethoxy)-2-Oxoethyl)-L-Prolyl] Benzylamide]",8 µM
> 5 µM,> 15 µM,"COc1cc(C(=O)CN2CCC[C@H]2C(=O)NCCc2ccc(NC(C)=O)cc2)cc(OC)c1OC [Example 154, L-Proline, 1-[2-(3,4,5-Trimethoxyphenyl)-2-Oxoethyl] 2-(4-(N-Acetyl)aminophenyl)ethylamide]",13 µM
> 5 µM,> 15 µM,"C=CCOC(=O)Nc1ccc(CCCOC(=O)[C@@H]2CCCCN2CC(=O)C23CC4CC(CC(C4)C2)C3)cc1 [Example 161, L-Homoproline, 1-[2-Adamant-1-yl-2-Oxoethyl] 3-(4-(N-Carboallyloxy)aminophenyl)propyl Ester Hydrochloride]",9 µM
< 5 µM,16 µM,"O=C(NCc1ccccc1)[C@H](CC1CCCCC1)NC(=O)[C@@H]1CCCN1CC(=O)C12CC3CC(CC(C3)C1)C2 [Example 64, L-Cyclohexylalanine, N-[1-(2-Adamantan-1-yl-2-Oxoethyl)-L-Prolyl] Benzylamide]",7 µM
0.88 µM,13 µM,"CCC(OC(=O)CN1CCC[C@H]1C(=O)N[C@H](C(=O)NCc1ccccc1)[C@@H](C)CC)c1ccccc1 (stereo partly drawn) [Example 86, L-Isoleucine, N-[1-(2-(1-Phenylpropoxy)-2-Oxoethyl)-L-Prolyl] Benzylamide]",22 µM
< 5 µM,10 µM,"CC[C@H](C)[C@H](NC(=O)[C@@H]1CCCN1CC(=O)C1(c2ccc(Cl)cc2)CCCCC1)C(=O)NCc1ccccc1 [Example 114, L-Isoleucine, N-[1-(2-(1-(4-Chlorophenyl)cyclohexyl)-2-Oxoethyl)-L-Prolyl] Benzylamide]",7 µM
> 5 µM,> 33 µM,"COc1ccc(CNC(=O)[C@@H]2CCCN2CC(=O)c2cc(OC)c(OC)c(OC)c2)cc1 [Example 132, L-Proline, 1-[2-(3,4,5-Trimethoxyphenyl)-2-Oxoethyl] 4-Methoxybenzamide Hydrochloride]",24 µM
0.22 µM,> 100 µM,"CC(C)C[C@H](NC(=O)[C@@H]1CCCN1CC(=O)C12CC3CC(CC(C3)C1)C2)C(=O)NCc1ccccc1 [Example 57, L-Leucine, N-[1-(2-Adamantan-1-yl-2-Oxoethyl)-L-Prolyl] Benzylamide]",8 µM
< 5 µM,> 15 µM,"CC[C@H](C)[C@H](NC(=O)[C@@H]1CCCN1CC(=O)c1ccccc1OC(=O)c1ccccc1)C(=O)NCc1ccccc1 [Example 103, L-Isoleucine, N-[1-(2-(2-Benzoyloxyphenyl)-2-Oxoethyl)-L-Prolyl] Benzylamide]",> 15 µM
> 5 µM,> 33 µM,"COc1cc(C(=O)CN2CCC[C@H]2C(=O)NC(c2ccccc2)c2ccccc2)cc(OC)c1OC [Example 142, L-Proline, 1-[2-(3,4,5-Trimethoxyphenyl)-2-Oxoethyl] Diphenylmethylamide Hydrochloride]",12 µM
> 5 µM,> 15 µM,"COc1cc(C(=O)CN2CCC[C@H]2C(=O)NCCc2ccc(NC(=O)c3ccccc3)cc2)cc(OC)c1OC [Example 155, L-Proline, 1-[2-(3,4,5-Trimethoxyphenyl)-2-Oxoethyl] 2-(4-(N-Benzoyl)aminophenyl)ethylamide]",9 µM
< 5 µM,> 15 µM,"CC[C@H](C)[C@H](NC(=O)[C@@H]1CCCN1CC(=O)c1cc(OC)c(OC)cc1OC)C(=O)NCc1ccccc1 [Example 117, L-Isoleucine, N-[1-(2-(2,4,5-Trimethoxyphenyl)-2-Oxoethyl)-L-Prolyl] Benzylamide]",> 15 µM

Structure (SMILES),IC50 (FKBP),IC50 (NF-AT),IC50 (human T-cells)
"CC[C@H](C)[C@H](NC(=O)[C@@H]1CCCN1CC(=O)CC12CC3CC(CC(C)(C3)C1)C2)C(=O)NCc1ccccc1 [Example 46, L-Isoleucine, N-[1-(2-Oxo-3-(3-Methyl-Adamantan-1-yl)-Propyl)-L-Prolyl] Benzylamide]",< 5 µM,15 µM,13 µM
